Measured values from US20210269479A1, “USE OF CY[…] FOR TREATING CANCER” (Hepion Pharmaceuticals, Inc., priority 2020, published 2021).

Test system: human precision cut liver slices (PCLS)
Assay: RNA-Seq of PCLS, Nonstimulation Protocol (Non-stimulated + CRV vs Non-stimulated + Vehicle)
Format: cell-based
Procedure: PCLS were obtained from 5 human donors who underwent resection of liver cancer. Replicate slices were collected from healthy margins of the resections and cultured for 4 or 6 days depending on the experimental protocol. In the Nonstimulation Protocol slices were cultured for 6 days and treated for the entire period with DMSO vehicle or 5 μM CRV431. In the Stimulation Protocol slices were rested for 1 day and then administered the cytokines, TGFβ and PDGF-BB, for 3 days to stimulate inflammation and fibrosis. DMSO vehicle, CRV431 (1 and 5 μM), Alk5i (10 μM), obeticholic acid (5 μM), elafibranor (5 μM), resmetirom (5 μM), and Aramchol (5 μM) were administered individually as drug treatments in the Stimulation Protocol concurrent with TGFβ+PDGF-BB. Culture medium treatments were replaced daily.
(d) Gene expression by RNA-Seq. RNA sequencing of the complete transcriptome (30 million reads per sample) was conducted on vehicle and 5 μM CRV431 treatment groups from 3 donors both from the Nonstimulation and Stimulation Protocols. Data were analyzed by bioinformatics software programs to identify genes that were differentially expressed between vehicle and CRV431 treatments.
For the evaluation done for (d), 12 samples corresponding to 3 different donor slides which underwent 4 different treatments were studied. the comparisons carried out in this analysis are: (1) TGFb/PDGF+CRV vs TGFb/PDGF+Vehicle (V), and (2) Non-stimulated+CRV vs Non-stimulated+Vehicle.
Heatmaps were generated by plotting significant differently expressed genes for the comparison Non-stimulated+CRV and Non-stimulated+Vehicle (p-adjust<0.05, log fold change>0.5). First, the heatmap with the samples grouped by group (FIG. 7A) is shown in order to observe the different expression pattern present within the group (blue=vehicle; red=CRV). Then, the same significant genes arweree plotted into a heatmap (FIG. 7B), but the samples are now plotted grouped by donor in order to observe the differences between donors (blue=vehicle; red=CRV).
Significant differently expressed genes that were identified in the comparison Non-stimulated+CRV and Non-stimulated+Vehicle ([…], log fold change>0.5) are provided in Table 3. The fold changes shown are relative to the treatment CRV.
Nonstimulated+CRV431 vs Nonstimulated+Vehicle were then compared by donor. As shown in the PCA, there was a strong effect of the donor. Therefore, the analysis was repeated as in the previous comparison. […] In other words, there were at least 300 copies more in the treatment CRV than in the vehicle. After doing this selection individually for each donor, a venn diagram was plotted showing the overlapping between all three donors. […] So, there are at least 300 copies less in the treated group compared to the vehicle. After doing the selection individually for each donor, a venn diagram was plotted showing the overlapping between all three donors.

[1] = Non-stimulated + CRV vs Non-stimulated + Vehicle, 5 μM
[2] = absence of TGFβ+PDGF-BB, all donors

## CC[C@@H]1NC(=O)[C@H]([C@H](O)[C@H](C)CCCCCCNC(C)=O)N(C)C(=O)[C@H](C(C)C)N(C)C(=O)[C@H](CC(C)C)N(C)C(=O)[C@H](CC(C)C)N(C)C(=O)[C@@H](C)NC(=O)[C@H](C)NC(=O)[C@H](CC(C)C)N(C)C(=O)[C@H](C(C)C)NC(=O)[C@H](CC(C)C)N(C)C(=O)[C@@H](C)N(C)C1=O [CRV431]
[1]
  log2FoldChange, gene AC099668.1: 1.056
  log2FoldChange, gene ACOT9: 0.543
  log2FoldChange, gene ADGRD1: −1.126
  log2FoldChange, gene AFG1L: 1.327
  log2FoldChange, gene AGT: −0.627
  log2FoldChange, gene AKAP10: −1.249
  log2FoldChange, gene ALPK3: −0.621
  log2FoldChange, gene AP000347.1: 1.809
  log2FoldChange, gene AP003119.3: −0.67
  log2FoldChange, gene APBA1: −1.158
  log2FoldChange, gene AREG: 1.034
  log2FoldChange, gene ARVCF: −0.609
  log2FoldChange, gene C4B: −0.506
  log2FoldChange, gene CACUL1: −0.94
  log2FoldChange, gene CCDC149: 0.76
  log2FoldChange, gene CCNK: 0.545
  log2FoldChange, gene CD5L: 1.675
  log2FoldChange, gene CD180: 1.051
  log2FoldChange, gene CDH11: −0.915
  log2FoldChange, gene COL27A1: −0.545
  log2FoldChange, gene CXCL5: 0.663
  log2FoldChange, gene CXCL12: 0.623
  log2FoldChange, gene CYP3A4: −2.313
  log2FoldChange, gene CYP24A1: −1.499
  log2FoldChange, gene DAAM2: 1.498
  log2FoldChange, gene DANCR: 0.693
  log2FoldChange, gene DDX60: −0.739
  log2FoldChange, gene DGKD: −0.85
  log2FoldChange, gene DKK1: 1.939
  log2FoldChange, gene DNAJB9: 0.721
  log2FoldChange, gene DUS3L: 0.745
  log2FoldChange, gene ESM1: −1.157
  log2FoldChange, gene FANCI: −1.319
  log2FoldChange, gene FSTL1: −0.595
  log2FoldChange, gene GDPD5: −0.606
  log2FoldChange, gene GEM: −0.975
  log2FoldChange, gene GMPPA: 0.768
  log2FoldChange, gene GMPPB: 0.715
  log2FoldChange, gene GOLGA8A: −0.669
  log2FoldChange, gene GYG1: 0.94
  log2FoldChange, gene HID1: 0.716
  log2FoldChange, gene HLA-F: −0.727
  log2FoldChange, gene HM13: 0.528
  log2FoldChange, gene HOOK1: −0.998
  log2FoldChange, gene IFI6: −1.273
  log2FoldChange, gene IFI44L: −2.254
  log2FoldChange, gene IFIT2: −0.812
  log2FoldChange, gene ISLR: −0.815
  log2FoldChange, gene KAT14: 0.874
  log2FoldChange, gene KIAA0513: −0.98
  log2FoldChange, gene KRT7: 0.563
  log2FoldChange, gene KRT81: 1.137
  log2FoldChange, gene L3MBTL1: −2.03
  log2FoldChange, gene LGALS3BP: −0.556
  log2FoldChange, gene LILRB4: 0.909
  log2FoldChange, gene LILRB5: 1.075
  log2FoldChange, gene MANF: 0.682
  log2FoldChange, gene MEG3: −0.682
  log2FoldChange, gene MIR194-2HG: −2.973
  log2FoldChange, gene MLLT10: −1.19
  log2FoldChange, gene MPEG1: 0.584
  log2FoldChange, gene MS4A4A: 0.735
  log2FoldChange, gene MT-CO1: −1.083
  log2FoldChange, gene MTCO1P12: −1.183
  log2FoldChange, gene NCOA3: −1.438
  log2FoldChange, gene NOTCH3: −0.564
  log2FoldChange, gene NREP: −0.638
  log2FoldChange, gene NUCB2: 0.851
  log2FoldChange, gene NUGGC: 1.136
  log2FoldChange, gene NUMA1: −0.537
  log2FoldChange, gene PALM2-AKAP2: −1.035
  log2FoldChange, gene PAN2: 0.742
  log2FoldChange, gene PDE4C: −0.669
  log2FoldChange, gene PDZD2: −1.468
  log2FoldChange, gene PEG10: 1.463
  log2FoldChange, gene PFKFB3: −0.545
  log2FoldChange, gene PGM3: 0.751
  log2FoldChange, gene PLTP: −0.584
  log2FoldChange, gene PLXNA2: 1.719
  log2FoldChange, gene POU2F2: 2.856
  log2FoldChange, gene R3HDM2: −0.678
  log2FoldChange, gene RAD51D: 1.387
  log2FoldChange, gene RARRES2: −0.766
  log2FoldChange, gene RFX1: −1.495
  log2FoldChange, gene SCRIB: 0.661
  log2FoldChange, gene SEC11C: 0.844
  log2FoldChange, gene SEC24D: 0.58
  log2FoldChange, gene SEC61B: 0.602
  log2FoldChange, gene SELL: 2.035
  log2FoldChange, gene SERPINB2: 1.255
  log2FoldChange, gene SIPA1L3: −0.652
  log2FoldChange, gene SKI: −0.931
  log2FoldChange, gene SLC2A1: −0.635
  log2FoldChange, gene SLC29A1: −0.53
  log2FoldChange, gene SNHG3: 0.665
  log2FoldChange, gene SOWAHC: −0.601
  log2FoldChange, gene SPCS3: 0.715
  log2FoldChange, gene SRGAP2B: −0.729
  log2FoldChange, gene SSR4: 0.564
  log2FoldChange, gene STX16: 0.577
  log2FoldChange, gene SYNGAP1: −1.718
  log2FoldChange, gene SYNRG: −0.74
  log2FoldChange, gene TMEM154: −1.351
  log2FoldChange, gene TNFSF14: −0.681
  log2FoldChange, gene TRPV6: 0.83
  log2FoldChange, gene TTLL3: −0.579
  log2FoldChange, gene UHRF2: −0.778
  log2FoldChange, gene UNKL: −0.916
  log2FoldChange, gene WNK1: −0.698
  log2FoldChange, gene XAF1: −0.725
[2]
  fold change in RNA, DKK1: +3.8 fold
  fold change in RNA, ESM1: −2.2 fold
  fold change in RNA, IFI44L: −4.8 fold
  fold change in RNA, NCOA3: −2.7 fold
  fold change in RNA, mIR-194-2: −7.9 fold
